#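 Briefly, cells in 96-well plates were exposed to five compound concentrations for 48 h, and endpoints were estimated by linear interpolation. Abbreviation: GI50, concentration required for 50% inhibition of growth. TGI: concentration producing complete growth inhibition.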
# What was measured:
# Test in all cases: DTP human tumour cell line panel, 48 h
# [1] = tested on: SK-MEL-2 melanoma
# [2] = tested on: SW-620 colon
# [3] = tested on: HCT-116 colon
# [4] = tested on: NCI-H522 lung
# [5] = tested on: IGROV1 ovarian
# [6] = tested on: HT29 colon
# [7] = tested on: SNB-19 CNS
# [8] = tested on: RPMI-8226 leukemia
# [9] = tested on: HCT-15 colon
# [10] = tested on: NCI-H226 lung
# [11] = tested on: NCI/ADR-RES ovarian
# [12] = tested on: HOP-62 NSCLC
# [13] = tested on: BT-549 breast
# [14] = tested on: CCRF-CEM leukemia
# [15] = tested on: OVCAR-5 ovarian
# [16] = tested on: DU-145 prostate
# [17] = tested on: MCF7 breast
# [18] = tested on: SK-MEL-28 melanoma
# [19] = tested on: HCC-2998 colon
# [20] = tested on: UACC-257 melanoma
# [21] = tested on: UACC-62 melanoma
# [22] = tested on: MDA-MB-231 breast
# [23] = tested on: SF-268 CNS
# [24] = tested on: TK-10 renal
# [25] = tested on: MALME-3M melanoma
# [26] = tested on: 786-0 renal
# [27] = tested on: A498 renal
# [28] = tested on: U251 CNS
# [29] = tested on: HOP-92 NSCLC
# [30] = tested on: NCI-H23 lung
# [31] = tested on: UO-31 renal
# [32] = tested on: KM12 colon
# [33] = tested on: T-47D breast
# [34] = tested on: SR leukemia
# [35] = tested on: HL-60(TB) leukemia
# [36] = tested on: EKVX NSCLC
# [37] = tested on: A549 NSCLC
# [38] = tested on: CAKI-1 renal
# [39] = tested on: OVCAR-4 ovarian
# [40] = tested on: SK-OV-3 ovarian
# [41] = tested on: OVCAR-8 ovarian
# [42] = tested on: MDA-MB-468 breast
# [43] = tested on: SN12C renal
# [44] = tested on: SF-295 CNS
# [45] = tested on: RXF 393 renal
# [46] = tested on: NCI-H460 lung
# [47] = tested on: COLO 205 colon
# [48] = tested on: MDA-MB-435
# [49] = tested on: PC-3 prostate
# [50] = tested on: K-562 leukemia
# [51] = tested on: OVCAR-3 ovarian
# [52] = tested on: SF-539 CNS
# [53] = tested on: LOX IMVI melanoma
# [54] = tested on: SK-MEL-5 melanoma
# [55] = tested on: HS 578T breast
# [56] = tested on: ACHN renal
# [57] = tested on: MOLT-4 leukemia
# [58] = tested on: M14 melanoma
# [59] = tested on: SNB-75 CNS
smiles,measurement,setting,value
COc1ccc(C(=O)/C=C/c2cccc(Cl)c2Cl)cc1S(N)(=O)=O,GI50,[1],11.3 µM
same,TGI,[1],22.3 µM
same,GI50,[2],1.58 µM
same,TGI,[2],3.3 µM
same,GI50,[3],1.31 µM
same,TGI,[3],2.72 µM
same,GI50,[4],3.01 µM
same,TGI,[4],12.6 µM
same,GI50,[5],3.24 µM
same,TGI,[5],12.4 µM
same,GI50,[6],1.52 µM
same,TGI,[6],2.99 µM
same,GI50,[7],5.09 µM
same,TGI,[7],16.1 µM
same,GI50,[8],2.88 µM
same,TGI,[8],16.2 µM
same,GI50,[9],1.29 µM
same,TGI,[9],2.94 µM
same,GI50,[10],2.3 µM
same,TGI,[10],7.5 µM
same,GI50,[11],1.89 µM
same,TGI,[11],4.75 µM
same,GI50,[12],2.3 µM
same,TGI,[12],7.12 µM
same,GI50,[13],4.73 µM
same,TGI,[13],17 µM
same,GI50,[14],5.74 µM
same,TGI,[14],33.3 µM
same,GI50,[15],1.91 µM
same,TGI,[15],5.78 µM
same,GI50,[16],2.86 µM
same,TGI,[16],10.2 µM
same,GI50,[17],3.17 µM
same,TGI,[17],13.7 µM
same,GI50,[18],11.1 µM
same,TGI,[18],22 µM
same,GI50,[19],4.21 µM
same,TGI,[19],15.5 µM
same,GI50,[20],11.2 µM
same,TGI,[20],22.5 µM
same,GI50,[21],4.85 µM
same,TGI,[21],16.2 µM
same,GI50,[22],2.57 µM
same,TGI,[22],7.61 µM
same,GI50,[23],3.45 µM
same,TGI,[23],14.5 µM
same,GI50,[24],5.18 µM
same,TGI,[24],16.9 µM
same,GI50,[25],9.71 µM
same,TGI,[25],20.1 µM
same,GI50,[26],1.88 µM
same,TGI,[26],4.28 µM
same,GI50,[27],9.6 µM
same,TGI,[27],20 µM
same,GI50,[28],1.31 µM
same,TGI,[28],2.48 µM
same,GI50,[29],5.44 µM
same,TGI,[29],17.2 µM
same,GI50,[30],3.8 µM
same,TGI,[30],14.3 µM
same,GI50,[31],1.48 µM
same,TGI,[31],3.51 µM
same,GI50,[32],1.99 µM
same,TGI,[32],4.8 µM
same,GI50,[33],3.94 µM
same,TGI,[33],16.4 µM
same,GI50,[34],1.54 µM
same,TGI,[34],5.36 µM
same,GI50,[35],7.84 µM
same,TGI,[35],34.2 µM
same,GI50,[36],10.3 µM
same,TGI,[36],20.9 µM
same,GI50,[37],2.52 µM
same,TGI,[37],9.42 µM
same,GI50,[38],4.36 µM
same,TGI,[38],15 µM
same,GI50,[39],3.97 µM
same,TGI,[39],16.7 µM
same,GI50,[40],12.4 µM
same,TGI,[40],23.8 µM
same,GI50,[41],2.37 µM
same,TGI,[41],8.78 µM
same,GI50,[42],2.93 µM
same,TGI,[42],13.1 µM
same,GI50,[43],1.82 µM
same,TGI,[43],3.91 µM
same,GI50,[44],3.89 µM
same,TGI,[44],14.7 µM
same,GI50,[45],2.09 µM
same,TGI,[45],8.56 µM
same,GI50,[46],1.89 µM
same,TGI,[46],4.94 µM
same,GI50,[47],2.75 µM
same,TGI,[47],10.3 µM
same,GI50,[48],9.65 µM
same,TGI,[48],20.7 µM
same,GI50,[49],4.49 µM
same,TGI,[49],16.6 µM
same,GI50,[50],2.67 µM
same,TGI,[50],24.1 µM
same,GI50,[51],1.8 µM
same,TGI,[51],4.42 µM
same,GI50,[52],1.41 µM
same,TGI,[52],2.61 µM
same,GI50,[53],1.38 µM
same,TGI,[53],2.54 µM
same,GI50,[54],9.19 µM
same,TGI,[54],19.4 µM
same,GI50,[55],8.64 µM
same,TGI,[55],32.1 µM
same,GI50,[56],1.77 µM
same,TGI,[56],3.9 µM
same,GI50,[57],2.09 µM
same,TGI,[57],6 µM
same,GI50,[58],9.52 µM
same,TGI,[58],21 µM
CC(=C(c1ccc(OCCCN(C)C)cc1)c1ccc(OCCCN(C)C)cc1)c1ccccc1,GI50,[1],3.01 µM
same,TGI,[1],6.16 µM
same,GI50,[2],0.339 µM
same,TGI,[2],0.708 µM
same,GI50,[3],0.37 µM
same,TGI,[3],0.847 µM
same,GI50,[4],0.354 µM
same,TGI,[4],0.746 µM
same,GI50,[5],1.17 µM
same,TGI,[5],4.02 µM
same,GI50,[6],0.385 µM
same,TGI,[6],0.917 µM
same,GI50,[7],0.835 µM
same,TGI,[7],3.24 µM
same,GI50,[8],0.608 µM
same,TGI,[8],1.82 µM
same,GI50,[9],0.635 µM
same,TGI,[9],2.29 µM
same,GI50,[10],3.89 µM
same,TGI,[10],8.05 µM
same,GI50,[11],1.77 µM
same,TGI,[11],4.65 µM
same,GI50,[59],0.804 µM
same,TGI,[59],4.09 µM
same,GI50,[12],2.62 µM
same,TGI,[12],5.93 µM
same,GI50,[13],2.44 µM
same,TGI,[13],5.42 µM
same,GI50,[14],0.438 µM
same,TGI,[14],1.13 µM
same,GI50,[15],1.16 µM
same,TGI,[15],4.11 µM
same,GI50,[16],1.1 µM
same,TGI,[16],3.82 µM
same,GI50,[17],0.213 µM
same,TGI,[17],0.655 µM
same,GI50,[18],0.376 µM
same,TGI,[18],0.685 µM
same,GI50,[19],0.57 µM
same,TGI,[19],2.08 µM
same,GI50,[20],0.36 µM
same,TGI,[20],0.699 µM
same,GI50,[21],0.377 µM
same,TGI,[21],0.709 µM
same,GI50,[22],0.42 µM
same,TGI,[22],0.907 µM
same,GI50,[23],0.609 µM
same,TGI,[23],3.1 µM
same,GI50,[24],0.714 µM
same,TGI,[24],3.56 µM
same,GI50,[25],0.343 µM
same,TGI,[25],0.64 µM
same,GI50,[26],0.352 µM
same,TGI,[26],0.736 µM
same,GI50,[27],3.9 µM
same,TGI,[27],7.22 µM
same,GI50,[28],0.461 µM
same,TGI,[28],1.02 µM
same,GI50,[29],0.508 µM
same,TGI,[29],3.28 µM
same,GI50,[30],2.48 µM
same,TGI,[30],5.3 µM
same,GI50,[31],0.36 µM
same,TGI,[31],0.733 µM
same,GI50,[32],0.771 µM
same,TGI,[32],2.69 µM
same,GI50,[33],0.327 µM
same,TGI,[33],0.688 µM
same,GI50,[35],0.389 µM
same,TGI,[35],1.05 µM
same,GI50,[36],2.43 µM
same,TGI,[36],5.28 µM
same,GI50,[37],0.753 µM
same,TGI,[37],3.18 µM
same,GI50,[38],0.515 µM
same,TGI,[38],1.76 µM
same,GI50,[39],0.571 µM
same,TGI,[39],1.8 µM
same,GI50,[40],3.51 µM
same,TGI,[40],6.79 µM
same,GI50,[41],0.979 µM
same,TGI,[41],3.76 µM
same,GI50,[42],0.358 µM
same,TGI,[42],0.805 µM
same,GI50,[43],2.44 µM
same,TGI,[43],5.29 µM
same,GI50,[44],0.403 µM
same,TGI,[44],0.848 µM
same,GI50,[45],0.339 µM
same,TGI,[45],0.874 µM
same,GI50,[46],0.431 µM
same,TGI,[46],1.03 µM
same,GI50,[47],0.396 µM
same,TGI,[47],0.744 µM
same,GI50,[48],0.47 µM
same,TGI,[48],1.15 µM
same,GI50,[49],0.818 µM
same,TGI,[49],3.28 µM
same,GI50,[50],0.621 µM
same,TGI,[50],22 µM
same,GI50,[51],0.454 µM
same,TGI,[51],1.28 µM
same,GI50,[52],0.353 µM
same,TGI,[52],0.66 µM
same,GI50,[53],0.38 µM
same,TGI,[53],0.706 µM
same,GI50,[54],0.363 µM
same,TGI,[54],0.679 µM
same,GI50,[55],0.448 µM
same,TGI,[55],1.78 µM
same,GI50,[56],0.473 µM
same,TGI,[56],1.04 µM
same,GI50,[57],0.627 µM
same,TGI,[57],2.43 µM
same,GI50,[58],0.386 µM
same,TGI,[58],0.768 µM
